Source: patent publication US5869456A, “Use of glutathione diesters” (priority 1995, dated 1999)
Read-outs that look alike come from different tables or passages of the source.

How the values were obtained:
[1] = tested on: mice; details: earlier evidence / earlier patents; cited from earlier work
[2] = tested on: GSH diester α-esterase activity, sheep plasma
[3] = tested on: esterase activity, mouse blood plasma
[4] = tested on: GSH diester α-esterase activity, human blood plasma
[5] = tested on: Human Erythrocytes; details: whole blood + one-half volume 120 mM thiol, 30 minutes, 37° C.
Protocol: (§1) Derivatization of Cell Thiols for HPLC Analysis. Derivatization mixtures are as follows: Erythrocyte Lysates: 155 μl 50 mM DTPA (pH 7), 110 μl 3.33% SSA, total 180 μl cell supernatant plus "RBC Mix", 10 μl 0.1M mBBr (in CH3 CN), 100 μl of 2M Tris·HCl (pH 9 at room temperature). The samples were placed in the dark for 20-30 minutes at room temperature; the reaction was quenched with 90 μl of glacial acetic acid. Reduced Erythocyte Lysates. 155 μl mM DTT in 50 mM DTPA (pH 7), SSA, sample, and "RBC Mix" as above Tris was added and the samples were agitated at room temperature for 25 min. 20 μl Tris and 10 μl mBBr were added; the derivatization proceeds as above.
(§2) HPLC Analysis of Cellular Thiols. Samples were chromatographed on an Altex Ultrasphere ODS reverse phase column (5μ; 4.6 mm×25 cm), using one of three gradients: (1) Buffer A: 12.8% MeOH, 0.25% acetic acid, 87.75% H2 O, pH 3.9. (2) Buffer B: 90.0% MeOH, 0.25% acetic acid, 9.75% H2 O (no pH Adjustment). (3) Gradient 1: Initial, 100% A, linear gradient to 50% B at 25 min., linear gradient to 100% B at 35 min., wash with 100% B to 39.5 min.; step to 100% A at 40 min.; equilibration with 100% A to 48 min. Gradient 2: Initial, 100% A, linear gradient to 75% B at 25 min., remainder identical to Gradient 1. Gradient 3: Initial, 100% A, linear gradient to 65% A, 35% B at 25 minutes, remainder identical to gradient 1. Flow rates were 1 ml/min.
Whole blood (see Table 1) was mixed with one-half volume of 120 mM GSH, GSH-ME, or GSH-DE at pH 7. The samples were incubated for 30 minutes at 37° C. and then centrifuged. After removal of plasma and buffy coat, the erythrocytes were washed and processed as described in Table 1.

[6] = tested on: Hamsters (liver, kidney, blood plasma); assay: Thiol levels in hamsters treated with GSH esters; format: in vivo, Syrian hamster
Protocol: Plasma Samples: 190 μl 50 mM DTPA, total 70 μ1 sample plus 3.33% SSA, 17.5 μl Tris, 10 μl of mBBr; after 20 min in the dark, 7.5 μl glacial acetic acid. Reduced Plasma Samples: 170μ 50 mM DTPA, 20 μl 16 mM DTT in 50 mM DTPA, remainder as above; the samples were agitated at room temperature for 20 min. After reduction, mBBr was added and the derivatization proceeds as above.
Other Animal Tissues. 385 μl 50 mM DTPA, 140 μl sample. 20 μl mBBr, 40 μl Tris; 20 minutes in the dark, 15 μl glacial acetic acid. Standards for all sample types were prepared using identical derivatization procedures.
Recovery of Tissues from Syrian Hamsters. Animals were anesthetized by i.p. administration of xylazine and ketamine, decapitated, and exsanguinated. Blood was mixed with 50 μl EDTA (0.5M, pH 7). Plasma was recovered by centrifugation; one-half vol. 10% SSA/0.5 mM DTPA was added. Liver: one lobe was removed, rinsed with H2 O, blotted, weighed, and homogenized in 5% SSA (0.5 Mm DTPA) (5 vol/g tissue). Kidney: one kidney was removed and decapsulated and then processed as with liver.
BSO (6 mmol/kg) was given I.P. fasted animals 2 hours prior to giving GSH, GSH-ME, or GSH-DE (5 mmol/kg); values were determined 1 hour later. […] Each value represents determinations ±S.D. on 3-4 animals.

[7] = tested on: GSH diester α-esterase activity, hamster plasma
[8] = tested on: Human Erythrocytes; details: for Thiol Levels, Total / Thiol Levels, thiol found GSH / Thiol Levels, thiol found GSH-DE / Thiol Levels, thiol found GSH-ME: erythrocyte suspension, 80 mM thiol added (one-third vol), 37° C.
Protocol: Analysis of Erythrocyte Thiol by DTNB. Cell supernatant (40 μl) was added to 1 ml of 6 mM DTNB (in 143 mM phosphate buffer, pH 7.5, containing 6.3 mM EDTA). The change in absorbance at 412 nm after 1 min was converted to a value for total thiol using a GSH standard curve. The GSH standard were prepared in a 1:2:2 mixture of PBS: 0.435M acetic acid: 10% SSA (containing 2 mM EDTA) ("RBC Mix").
as §1, §2
Whole blood was collected with EDTA or DTPA (0.5M, pH 7) as anticoagulant (0.4 ml/8-12 ml blood). Plasma and buffy coat were removed after centrifugation and the erythrocytes washed 3 times with 1-2 vol PBS/5 mM DTPA or EDTA. Packed erythrocytes were suspended in one-half vol. PBS. To each suspension was one-third vol. GSH, GSH-ME or GSH-DE (80 mM, pH 7). After incubation at 37° C. for the indicated times, aliquots were removed, washed (3-4×) with PBS/EDTA/DTPA, lysed with one volume 0.435M acetic acid, protein-precipitated with one volume 10% SSA/2 mM DTPA, and centrifuged to remove cell debris. Supernatants were derivatized for HPLC analysis as described in Materials and Methods.

[9] = tested on: hamsters; details: given to hamsters, present studies
[10] = tested on: mice; details: given to mice, present studies
[11] = tested on: GSH diester α-esterase activity, guinea pig plasma
[12] = tested on: GSH diester α-esterase activity, rabbit plasma
[13] = tested on: esterase activity, rat blood plasma
[14] = tested on: Human Peripheral Blood Mononuclear Cells; details: for Thiol Levels, Total / Thiol Levels, thiol found GSH / Thiol Levels, thiol found GSH-DE / Thiol Levels, thiol found GSH-ME: isolated PBM, 0.3 ml 80 mM thiol to 0.9 ml cells, 37° C.
Protocol: (§3) T Cell and PBM Lysates: 120 μl 4 mM DTPA, total 360 μl sample/4.31% SSA (containing 0.5 mM DTPA), 100 μl Tris, 5μ mBBr; 20 min. in the dark, 15 μl glacial acetic acid.
as §2
PBM were isolated from whole blood (see Tables 1 and 3) washed with PBS, and re-suspended in PBS. To 0.9 ml cell suspension (5-8×10^6 cells) was added 0.3 ml of 80 mM GSH, GSH-ME or GSH-DE at pH 7. After incubation at 37° C. for the indicated times, the cells were recovered by centrifugation, washed with 14 ml PBS (2×), and lysed by addition of 4.31% of SSA/0.5 mM DTPA and 2-3 freeze-thaw cycles. After centrifugation, supernatants were derivatized for HPLC analysis.

[15] = tested on: Human Peripheral Blood Mononuclear Cells; details: 6 ml whole blood + 3 ml 60 mM thiol, 30 min, 37° C.; PBM
Protocol: as §3, §2
6 mls. whole blood (see Table 1) was mixed with 3 ml of 60 mM GSH, GSH-ME or GSH-DE at pH 7. After 30 min incubation at 37° C., PBM were isolated by Ficoll-Hypaque density gradient centrifugation. Cells were washed with 14 ml PBS (2-3) and lysed with 4.31% SSA/0.5 mM DTPA (400 μl). After centrifugation, the supernatants were derivatized for HPLC analysis.

For COC(=O)CNC(=O)C(CS)NC(=O)CCC(N)C(=O)OC (centres unmarked) [GSH dimethyl ester], the toxicity [1] is given as “may be toxic”.

In the case of CCOC(=O)CNC(=O)[C@H](CS)NC(=O)CC[C@H](N)C(=O)OCC [GSH-DE, glutathione diethyl ester], the “GSH diester α-esterase activity in plasma” value [2] was “also lack this esterase”, the “conversion of GSH diethyl ester to GSH mono (glycyl) ester in blood plasma” value (“conversion of GSH diethyl ester” below) [3] was “split rapidly to GSH-ME” and the “conversion of GSH diethyl ester” value ([3]; listed as GSH diethyl ester) was “rapidly converted to GSH mono (glycyl) ester”. The “splitting of GSH-DE to GSH-ME in plasma (GSH diester α-esterase activity)” value (“splitting of GSH-DE to GSH-ME in plasma” for short) [4] was “not split to GSH-ME in plasma”, the “splitting of GSH-DE to GSH-ME in plasma” value ([4]; listed as GSH diethyl ester) was “does not have detectable GSH diester α-esterase activity” and the “Thiol Levels Found, GSH” value [5] was 2.24 ± 0.45 mM. For the same compound, the “Thiol Levels Found, GSH-DE” value [5] was 8.61 ± 0.31 mM, the “Thiol Levels Found, GSH-ME” value [5] was 6.26 ± 0.50 mM and the “Thiol Levels Found, Total” value [5] was 17.1 ± 1.24 mM. The “raising GSH levels in liver” value ([6]; hamster, comparison in words (Table 6)) was “more effective than GSH-ME”, the “Blood plasma levels of GSH” value ([6]; hamsters, 5 mmol/kg after BSO, 1 hour later) was “not affected” and the “splitting of GSH-DE to GSH-ME in plasma” value [7] was “not split to GSH-ME in plasma”. For the same compound, the “splitting of GSH-DE to GSH-ME in plasma” value ([7]; listed as GSH diethyl ester) was “lacks detectable GSH diester α-esterase activity”, the “Thiol Levels, Total” value ([8]; 7 min) was 9.99 ± 2.10 mM and the “Thiol Levels, thiol found GSH” value ([8]; 7 min) was 1.74 ± 0.22 mM. The “Thiol Levels, thiol found GSH-DE” value ([8]; 7 min) was 4.19 ± 1.47 mM, the “Thiol Levels, thiol found GSH-ME” value ([8]; 7 min) was 4.01 ± 0.41 mM and the “Thiol Levels, Total” value ([8]; 45 min) was 14.5 ± 2.0 mM. For the same compound, the “Thiol Levels, thiol found GSH” value ([8]; 45 min) was 1.77 ± 0.22 mM, the “Thiol Levels, thiol found GSH-DE” value ([8]; 45 min) was 3.61 ± 1.29 mM and the “Thiol Levels, thiol found GSH-ME” value ([8]; 45 min) was 9.15 ± 0.49 mM. The “Thiol Levels, Total” value ([8]; 90 min) was 20.1 ± 2.8 mM, the “Thiol Levels, thiol found GSH” value ([8]; 90 min) was 2.02 ± 0.30 mM and the “Thiol Levels, thiol found GSH-DE” value ([8]; 90 min) was 3.51 ± 1.28 mM. The “Thiol Levels, thiol found GSH-ME” value ([8]; 90 min) was 14.6 ± 1.2 mM, the “total RBC thiol levels” value ([8]; summary of Table 1) was “about 20 mM” and the toxicity [9] was “toxicity was not observed”. The toxicity [10] was “toxicity was not observed”, the “GSH diester α-esterase activity in plasma” value [11] was “also lack this esterase” and the “GSH diester α-esterase activity in plasma” value [12] was “also lack this esterase”. The “conversion of GSH diethyl ester” value [13] was “split rapidly to GSH-ME”, the “conversion of GSH diethyl ester” value ([13]; listed as GSH diethyl ester) was “rapidly converted to GSH mono (glycyl) ester” and the “total thiols in human PBM” value ([14]; in 90 min, text summary of Table 4) was 33 mM. The “Thiol Levels, Total” value ([14]; 7 min, donor A) was 12.1 ± 1.3 nmol/10^6 cells, the “Thiol Levels, thiol found GSH” value ([14]; 7 min, donor A) was 3.64 ± 0.32 nmol/10^6 cells and the “Thiol Levels, thiol found GSH-DE” value ([14]; 7 min, donor A) was 0.65 ± 0.016 nmol/10^6 cells. The “Thiol Levels, thiol found GSH-ME” value ([14]; 7 min, donor A) was 8.34 ± 0.95 nmol/10^6 cells, the “Thiol Levels, Total” value ([14]; 45 min, donor B) was 17.2 ± 1.4 nmol/10^6 cells and the “Thiol Levels, thiol found GSH” value ([14]; 45 min, donor B) was 2.82 ± 0.25 nmol/10^6 cells. For the same compound, the “Thiol Levels, thiol found GSH-DE” value ([14]; 45 min, donor B) was 0.320 ± 0.101 nmol/10^6 cells, the “Thiol Levels, thiol found GSH-ME” value ([14]; 45 min, donor B) was 14.1 ± 1.0 nmol/10^6 cells and the “Thiol Levels, Total” value ([14]; 90 min, donor A) was 33.2 ± 6.3 nmol/10^6 cells. For the same compound, the “Thiol Levels, thiol found GSH” value ([14]; 90 min, donor A) was 5.58 ± 1.05 nmol/10^6 cells, the “Thiol Levels, thiol found GSH-DE” value ([14]; 90 min, donor A) was 0.750 ± 0.141 nmol/10^6 cells and the “Thiol Levels, thiol found GSH-ME” value ([14]; 90 min, donor A) was 26.9 ± 5.1 nmol/10^6 cells. For the same compound, the “Thiol Levels Found, GSH” value [15] was 4.24 nmol/10^6 cells, the “Thiol Levels Found, GSH-DE” value [15] was 0.501 nmol/10^6 cells and the “Thiol Levels Found, GSH-ME” value [15] was 10.5 nmol/10^6 cells. The “Thiol Levels Found, Total” value [15] was 15.2 nmol/10^6 cells.
